BigSolDB 2.1

O=C(O)C[C@H](O)C(=O)O
solubility (mole fraction)
Conditions	278.15 K	283.15 K	288.15 K	293.15 K	298.15 K	303.15 K	308.15 K	313.15 K	318.15 K	323.15 K
in acetone	0.136	0.145	0.153	0.163	0.17	0.18	0.189	0.201	0.211	0.225
in acetonitrile	0.045	0.0485	0.0523	0.0559	0.0608	0.0646	0.0684	0.0733	0.0783	0.0838
in ethanol	0.11	0.126	0.145	0.166	0.187	0.207	0.232	0.256	0.283	0.314
in ethyl acetate	0.0017	0.0029	0.005	0.0083	0.0134	0.0213	0.0333	0.0516	0.0763	0.113
in isopropanol	0.117	0.136	0.157	0.178	0.203	0.228	0.256	0.285	0.314	0.345
in n-butanol	0.0832	0.0948	0.109	0.124	0.14	0.159	0.18	0.201	0.225	0.25
in n-propanol	0.0917	0.103	0.118	0.134	0.153	0.172	0.193	0.215	0.238	0.264
